Series [1] in a line: Solubility in water (solubility classes of screening compounds). It counts as physicochemical.
The next series deals with P. aerug. Briefly: Effectiveness towards P. aerug. (cystic fibrosis application, IC50 % wt/vol). It counts as cell-based, Pseudomonas aeruginosa.
For another series, the system named is Colletotrichum acutatum. Briefly: Petri dish assay for activity against Colletotrichum acutatum (spore adhesion to polystyrene).
The subject of series [2] is Dengue 2 (DENV-2 strain NG-2). Put plainly: microbe, parasite or virus in culture. It counts as cell-based, Dengue virus.
Series [3] concerns MRSA Staphylococcus aureus. Put plainly: Anti-adhesion assay for MRSA Staphylococcus aureus. It counts as cell-based. Conditions: for pIC50: read-out: IC50 anti-adhesion MRSA Staphylococcus aureus; for ICMAX (μM), IC100: maximal inhibition given as IC100.
The next series deals with Dengue virus. Briefly: Direct binding assay (DART TOF-MS) to Dengue virus. Conditions: FIG. 6. An excerpt: The virus particles were collected and fixed in 100% (USP) ethanol prior to DART TOF-MS analysis. The closed end of a borosilicate glass capillary tube was immersed in the virion solution and passed through the DART He plasma to obtain mass spectra of virion surface-bound chemistries. […] The same conditions were used to assess the binding of composition here to bacterial species.

The next series deals with Staphylococcus areus. Briefly: Direct binding assay (DART TOF-MS) to Staphylococcus aureus. Conditions: FIG. 7.
In a further series the test system is S. aureus. Put plainly: Effectiveness towards S. aureus (IC50 % wt/vol). Type of series: cell-based, Staphylococcus aureus.

pIC50: −log10 of the molar value. Read-outs that look alike come from different tables or passages of the source.

As a reminder, the pIC50 is the IC50 on a negative log10 scale, so that one unit is a factor of ten. Usually IC90 stands for the concentration needed for an effect of 90%.

For `CNC(=O)C(Cc1ccc(OS(C)(=O)=O)cc1)NC(=O)COCC(=O)Nc1cccc(OS(C)(=O)=O)c1` (stereo not shown) [Compound A02], in series [1], the Solubility in water entry is “insoluble in water”.
Still for that read-out and setting: as for `CNC(=O)C(Cc1ccc(OS(=O)(=O)C(F)(F)F)cc1)NC(=O)COCC(=O)Nc1cccc(OS(=O)(=O)C(F)(F)F)c1` (stereo not shown) [Compound B02], the entry is “insoluble in water”.
`CCN(CCOC(=O)/C=C/c1ccc(O)cc1)Cc1cc(Cl)ccc1O` [Compound I]: the “IC50 (% wt/vol), pathogen P. aerug.” value with P. aerug. worked out at 0.001 % wt/vol. The “IC50 (% wt/vol), pathogen C. acut.” value with Colletotrichum acutatum amounted to 0.004 % wt/vol. Also, the “Dengue infection when compound is bound to virus” value in series [2] (FIG. 6, virions from direct binding assay) is on record as “inhibited”. The “Adhesion of Staphylococcus areus when compound is bound” value in series [3] (FIG. 7) is recorded as “blocks adhesion”. Moreover, in series [3] (maximal inhibition printed as IC70, value is the concentration), the “ICMAX (μM), IC70” value was “IC70 - 120 μM”. In addition, the “Direct binding to Dengue virus (DART-MS peak)” value in the series on Dengue virus is listed as “direct binding”. Further, the “Direct binding to Staphylococcus areus (DART-MS peak)” value in the series on Staphylococcus areus is given as “binds to the bacteria”.
In the case of `CN(CCCNC(=O)c1ccc(O)cc1)CCCNC(=O)c1ccc2cc(O)ccc2c1` [III], the “IC50 (% wt/vol), pathogen P. aerug.” value in the series on P. aerug. was found to be 0.001 % wt/vol. In addition, the “IC50 (% wt/vol), pathogen S. aure.” value in the series with S. aureus is recorded as less than 0.017 % wt/vol. The “IC50 (% wt/vol), pathogen C. acut.” value with Colletotrichum acutatum is listed as less than 0.005 % wt/vol. In addition, the pIC50 in series [3] (Staphylococcus aureus, MRSA) is 5.15. Also, the “ICMAX (μM), IC100” value in series [3] (value is the concentration) is recorded as “IC100 - 100 μM”.
On to `CN(CCCNC(=O)c1ccc(O)cc1)CCCNC(=O)c1ccc(O)cc1` [IV], for which the pIC50 in series [3] (Staphylococcus aureus, MRSA) is 5.82. Moreover, in series [3] (Staphylococcus aureus, MRSA, read-out: ICMAX (μM), IC90), the IC90 stood at 10 µM.
Turning to `O=C(c1ccc(O)cc1)N1CCCN(C(=O)c2ccc3cc(O)ccc3c2)CC1` [VI], in the series on P. aerug., the “IC50 (% wt/vol), pathogen P. aerug.” value is given as less than 0.005 % wt/vol. For the same molecule, the “IC50 (% wt/vol), pathogen S. aure.” value in the series on S. aureus was less than 0.017 % wt/vol. Also, the “IC50 (% wt/vol), pathogen C. acut.” value with Colletotrichum acutatum was less than 0.005 % wt/vol. The pIC50 in series [2] (Dengue virus, DENV2, LLC-MK2, read-out: IC50 Dengue 2, anti-infection (adhesion)) was 3.94; in series [3] (Staphylococcus aureus, MRSA) it was 5.60. In addition, the “ICMAX (μM), IC100” value in series [3] (value is the concentration) is reported as “IC100 - 10 μM”.
As to `O=C(O)/C=C/c1ccc(OS(=O)(=O)O)cc1` [Zosteric Acid, reference compound], the pIC50 was 2.92 in series [2] (from graph of % inhibition versus concentration, read-out: IC50 Dengue 2, anti-infection (adhesion)) and 4.61 in series [3]. The “ICMAX (μM), IC100” value in series [3] (value is the concentration) is “IC100 - 90 μM”.

For the origin of these results see US20120101087A1, “Generation of Combinatorial Synthetic Libraries and Screening for Novel Proadhesins and Nonadhesins” (priority 2007, published 2012).
